Measured values reported in patent publication US6589984B1, “Benzofurylpyrone derivatives” (Teijin Limited, priority 1998, dated 2003).

System: Human hepatic cancer cells HepG2
Assay: TG production inhibiting activity (14C-acetic acid incorporation into TG) in HepG2 cells
Type: cell-based
Settings: Homo sapiens, HepG2, group criterion
Description: Human hepatic cancer cells HepG2 were inoculated into a 24-well plate (Costar No. 3524) at 4×10^4 cells/well, and 1 ml of medium (eRDF medium containing 10% bovine serum (Kyokuto Chemical Co.)) was used for 6 day culturing with 5% CO2 at 37° C. After drawing off the supernatant medium, the cells were freshly rinsed with 1 ml of PBS(−) buffer solution (Takara Shuzo) and drawn off. This procedure was repeated twice and then 1 ml of fresh medium (eRDF medium) was added.
6-(benzofuran-2-yl)-3,5-dimethyl-4-hydroxy-2H-pyran-2-one (Example 2) was dissolved in dimethylsulfoxide (DMSO) to prepare a 20 mM sample stock solution. A diluted solution was obtained by diluting the sample solution with DMSO.
To the cells prepared above there were added the sample stock solution or its diluted solution at 5 μl per well and 10 μl of ^14C-acetic acid solution (a solution of Amersham Code No. CFA13 diluted 4.4-fold with PBS(−) buffer), and culturing was carried out for one day with 5% CO2 at 37° C.
After the culturing was completed, the culture solution was removed, and 1 ml of extraction solution (a mixture of n-hexane and isopropyl alcohol at 2:1) was added for extraction treatment on the lipid components in the cells. After the treatment, the extract containing the obtained lipid components was air-dried, the residue was redissolved in 20 μl of a mixed solution of n-hexane and ethyl acetate at 9:1, and the solution was spotted on a thin-layer chromatography plate (S319, Tokyo Kasei) and developed by thin-layer chromatography with the mixed solution mentioned above. After air-drying, the lipid components were colored with iodine vapor, the portion corresponding to TG was cut out, and the amount of TG biosynthesized was measured with a liquid scintillation counter.

[1] = alternatives: IC50 at least 10 μM and less than 100 μM, or at least 5% and less than 30% inhibition at 1 μM, or at least 30% and less than 50% inhibition at 10 μM
[2] = alternatives: IC50 less than 10 μM, or at least 30% inhibition at 1 μM, or at least 50% inhibition at 10 μM

IC50 [1] [µM]	IC50 [2] [µM]	Structure (SMILES)
10 to 100		Cc1c(-c2cc3cc(OCc4ccc(Cl)cc4)ccc3o2)oc(=O)c(C)c1O [Example 79, 6-(5-(4-chlorobenzyloxy)benzofuran-2-yl)-3,5-dimethyl-4-hydroxy-2H-pyran-2-one]
10 to 100		Cc1c(-c2cc3cc(OCc4ccccc4Br)ccc3o2)oc(=O)c(C)c1O [Example 81, 6-(5-(2-bromobenzyloxy)benzofuran-2-yl)-3,5-dimethyl-4-hydroxy-2H-pyran-2-one]
10 to 100		Cc1c(-c2cc3cc(OCc4cccc(Br)c4)ccc3o2)oc(=O)c(C)c1O [Example 83, 6-(5-(3-bromobenzyloxy)benzofuran-2-yl)-3,5-dimethyl-4-hydroxy-2H-pyran-2-one]
10 to 100		Cc1c(-c2cc3cc(OCc4ccccn4)ccc3o2)oc(=O)c(C)c1O [Example 87, 3,5-dimethyl-4-hydroxy-6-(5-(2-pyridylmethoxy)benzofuran-2-yl)-2H-pyran-2-one]
	< 10	Cc1c(-c2cc3cc(OCc4cccnc4)ccc3o2)oc(=O)c(C)c1O [Example 89, 3,5-dimethyl-4-hydroxy-6-(5-(3-pyridylmethoxy)benzofuran-2-yl)-2H-pyran-2-one]
10 to 100		Cc1c(-c2cc3cc(OCC4CCCCN4C)ccc3o2)oc(=O)c(C)c1O (stereo not shown) [Example 95, 3,5-dimethyl-4-hydroxy-6-(5-(1-methylpiperidin-2-ylmethoxy)benzofuran-2-yl)-2H-pyran-2-one]
	< 10	Cc1c(-c2cc3cc(OCC4CCCN(C)C4)ccc3o2)oc(=O)c(C)c1O (stereo not shown) [Example 97, 3,5-dimethyl-4-hydroxy-6-(5-(1-methylpiperidin-3-ylmethoxy)benzofuran-2-yl)-2H-pyran-2-one]
10 to 100		Cc1c(-c2cc3cc(OC(CN(C)C)CN(C)C)ccc3o2)oc(=O)c(C)c1O [Example 107, 6-(5-(1,3-bis(dimethylamino)-2-propoxy)benzofuran-2-yl)-3,5-dimethyl-4-hydroxy-2H-pyran-2-one]
10 to 100		Cc1c(-c2cc3cc(OCCN4CCOCC4)ccc3o2)oc(=O)c(C)c1O [Example 115, 3,5-dimethyl-4-hydroxy-6-(5-(2-(morpholin-4-yl)ethoxy)benzofuran-2-yl)-2H-pyran-2-one]
	< 10	Cc1c(-c2cc3cc(OCc4ccc(C(=O)O)cc4)ccc3o2)oc(=O)c(C)c1O [Example 117, 6-(5-(4-carboxybenzyloxy)benzofuran-2-yl)-3,5-dimethyl-4-hydroxy-2H-pyran-2-one]
	< 10	Cc1c(-c2cc3cc(OCc4ccccc4C(F)(F)F)ccc3o2)oc(=O)c(C)c1O [Example 120, 3,5-dimethyl-4-hydroxy-6-(5-(2-(trifluoromethyl)benzyloxy)benzofuran-2-yl)-2H-pyran-2-one]
	< 10	Cc1c(-c2cc3cc(OCc4cccc(C(F)(F)F)c4)ccc3o2)oc(=O)c(C)c1O [Example 122, 3,5-dimethyl-4-hydroxy-6-(5-(3-(trifluoromethyl)benzyloxy)benzofuran-2-yl)-2H-pyran-2-one]
10 to 100		Cc1c(-c2cc3cc(OCc4ccc(C(F)(F)F)cc4)ccc3o2)oc(=O)c(C)c1O [Example 124, 3,5-dimethyl-4-hydroxy-6-(5-(4-(trifluoromethyl)benzyloxy)benzofuran-2-yl)-2H-pyran-2-one]
10 to 100		Cc1c(-c2cc3cc(OCC4CCCC4)ccc3o2)oc(=O)c(C)c1O [Example 126, 6-(5-(cyclopentylmethoxy)benzofuran-2-yl)-3,5-dimethyl-4-hydroxy-2H-pyran-2-one]
	< 10	Cc1ccc(COc2ccc3oc(-c4oc(=O)c(C)c(O)c4C)cc3c2)cc1C [Example 134, 6-(5-(3,4-dimethylbenzyloxy)benzofuran-2-yl)-3,5-dimethyl-4-hydroxy-2H-pyran-2-one]
	< 10	Cc1c(-c2cc3cc(OCc4cccs4)ccc3o2)oc(=O)c(C)c1O [Example 138, 3,5-dimethyl-4-hydroxy-6-(5-((2-thienyl)methoxy)benzofuran-2-yl)-2H-pyran-2-one]
